Consider eleven molecules from US20260125382A1, “COMPOUNDS FOR INHIBITING OR DEGRADING CDK2 AND/OR CDK9 AND MEDICINAL USE THEREOF” (KOREA RESEARCH INSTITUTE OF CHEMICAL TECHNOLOGY, priority 2022, published 2026).

The target in one experiment is T1, CDK2 (Homo sapiens, UniProt P24941).
T1 construct: endogenous in cells; host or cells: MDA-MB-231
Put plainly: CDK protein degradation activity (Western blotting), CDK2. Conditions: MDA-MB-231 cells, 16 hours, Western blot. The experiment is classed as cell-based. In short, it runs like this: (§1)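 MDA-MB-231; cmpd 100 nM / 1 μM / 10 μM final vs DMSO, 16 h. Triton X-100 lysates (pH 7.5, phosphatase/protease inhibitors) → SDS-PAGE → Western blot, anti-CDK2, anti-CDK9, tubulin loading control; densitometry.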
On the technique in general: Immunoblotting shows a protein as a band on a membrane.

For the next experiment, the target named is T2, CDK9 (Homo sapiens, UniProt P50750).
T2 construct: endogenous in cells; host or cells: MDA-MB-231
T2 sequence (P50750 whole entry): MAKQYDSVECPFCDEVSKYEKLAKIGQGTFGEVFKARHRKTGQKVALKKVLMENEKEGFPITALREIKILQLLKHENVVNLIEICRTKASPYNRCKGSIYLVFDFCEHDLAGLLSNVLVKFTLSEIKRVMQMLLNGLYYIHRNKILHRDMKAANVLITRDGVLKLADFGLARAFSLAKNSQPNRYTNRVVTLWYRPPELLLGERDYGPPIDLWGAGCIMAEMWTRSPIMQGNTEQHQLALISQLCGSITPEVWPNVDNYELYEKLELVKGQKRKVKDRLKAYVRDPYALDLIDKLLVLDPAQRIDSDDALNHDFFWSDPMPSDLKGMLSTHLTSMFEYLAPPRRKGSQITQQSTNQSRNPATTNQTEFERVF
Put plainly: CDK protein degradation activity (Western blotting), CDK9. Format: cell-based. The following applies: MDA-MB-231 cells, 16 hours, Western blot. In short, it runs like this:
as §1

`Cc1cccc(C(=O)N[C@H]2C[C@@H](n3cnc4c(NCc5cccc(OCC6CCN(C(=O)CNc7ccc8c(c7)C(=O)N(C7CCC(=O)NC7=O)C8=O)CC6)c5)ncnc43)C2)n1` (stereo partly drawn) [Compound 96, N-((1s,3s)-3-(6-((3-((1-((2-(2,6-dioxopiperidin-3-yl)-1,3-dioxoisoindolin-5-yl)glycyl)piperidin-4-yl)methoxy)benzyl)amino)-9H-purin-9-yl)cyclobutyl)-6-methylpicolinamide]: on CDK2, the “Enzyme degradation CDK2 (% remaining) @ 0.1 μM” value came to 60%, the “Enzyme degradation CDK2 (% remaining) @ 1 μM” value was 40% and the “Enzyme degradation CDK2 (% remaining) @ 10 μM” value was 50%. Moreover, on CDK9, the “Enzyme degradation CDK9 (% remaining) @ 0.1 μM” value stood at 10%, the “Enzyme degradation CDK9 (% remaining) @ 1 μM” value is reported as 0% and the “Enzyme degradation CDK9 (% remaining) @ 10 μM” value came to 0%.
Regarding `O=C1CC[C@H](N2C(=O)c3cccc(NCC(=O)N4CCC5(CC(N6CCN(c7ccc(Nc8ncnc9c8ncn9C8CC(NC(=O)Cc9ccccc9)C8)cc7)CC6)C5)C4)c3C2=O)C(=O)N1` (stereo partly drawn) [Compound 263, N-((1s,3s)-3-(6-((4-(4-(6-((2-(2,6-dioxopiperidin-3-yl)-1,3-dioxoisoindolin-4-yl)glycyl)-6-azaspiro[3.4]octan-2-yl)piperazin-1-yl)phenyl)amino)-9H-purin-9-yl)cyclobutyl)-2-phenylacetamide], on CDK2, the “Enzyme degradation CDK2 (% remaining) @ 0.1 μM” value was 50%, the “Enzyme degradation CDK2 (% remaining) @ 1 μM” value stood at 40% and the “Enzyme degradation CDK2 (% remaining) @ 10 μM” value was determined as 40%. Besides, at CDK9, the “Enzyme degradation CDK9 (% remaining) @ 0.1 μM” value is reported as 20%, the “Enzyme degradation CDK9 (% remaining) @ 1 μM” value is given as 0% and the “Enzyme degradation CDK9 (% remaining) @ 10 μM” value turned out to be 0%.
As to `O=C1CC[C@@H](c2ccc(OCC(=O)N3CCC4(CC(N5CCN(c6ccc(Nc7ncnc8c7ncn8C7CC(NC(=O)Cc8ccccc8)C7)cc6)CC5)C4)C3)cc2)C(=O)N1` (stereo partly drawn) [Compound 268, N-((1s,3s)-3-(6-((4-(4-(6-(2-(4-(2,6-dioxopiperidin-3-yl)phenoxy)acetyl)-6-azaspiro[3.4]octan-2-yl)piperazin-1-yl)phenyl)amino)-9H-purin-9-yl)cyclobutyl)-2-phenylacetamide], on CDK2, the “Enzyme degradation CDK2 (% remaining) @ 0.1 μM” value came to 70%, the “Enzyme degradation CDK2 (% remaining) @ 1 μM” value is recorded as 50% and the “Enzyme degradation CDK2 (% remaining) @ 10 μM” value is listed as 20%. On CDK9, the “Enzyme degradation CDK9 (% remaining) @ 0.1 μM” value was determined as 70%, the “Enzyme degradation CDK9 (% remaining) @ 1 μM” value is reported as 0% and the “Enzyme degradation CDK9 (% remaining) @ 10 μM” value worked out at 0%.
Regarding `O=C1CC[C@H](N2C(=O)c3cc(F)c(N4CCC(C(=O)N5CCC6(CC5)CC(N5CCN(c7ccc(Nc8ncnc9c8ncn9C8CC(NC(=O)c9c(Cl)cccc9Cl)C8)cc7)CC5)C6)CC4)cc3C2=O)C(=O)N1` (stereo partly drawn) [Compound 464, 2,6-dichloro-N-((1s,3s)-3-(6-((4-(4-(7-(1-(2-(2,6-dioxopiperidin-3-yl)-6-fluoro-1,3-dioxoisoindolin-5-yl)piperidin-4-carbonyl)-7-azaspiro[3.5]nonan-2-yl)piperazin-1-yl)phenyl)amino)-9H-purin-9-yl)cyclobutyl)benzamide], on CDK2, the “Enzyme degradation CDK2 (% remaining) @ 0.1 μM” value was determined as 40%, the “Enzyme degradation CDK2 (% remaining) @ 1 μM” value came to 30% and the “Enzyme degradation CDK2 (% remaining) @ 10 μM” value was determined as 30%. In addition, on CDK9, the “Enzyme degradation CDK9 (% remaining) @ 0.1 μM” value is on record as 0/0/0%, the “Enzyme degradation CDK9 (% remaining) @ 1 μM” value is given as 0/0/0% and the “Enzyme degradation CDK9 (% remaining) @ 10 μM” value is 0/0/0%.
`O=C1CC[C@H](N2C(=O)c3cccc(CCCN4CCC(CN5CCN(c6ccc(Nc7ncnc8c7ncn8C7CC(NC(=O)c8cccc(C(F)(F)F)n8)C7)cc6)CC5)CC4)c3C2=O)C(=O)N1` (stereo partly drawn) [Compound 426, N-((1s,3s)-3-(6-((4-(4-((1-(3-(2-(2,6-dioxopiperidin-3-yl)-1,3-dioxoisoindolin-4-yl)propyl)piperidin-4-yl)methyl)piperazin-1-yl)phenyl)amino)-9H-purin-9-yl)cyclobutyl)-6-(trifluoromethyl)picolinamide]: on CDK2, the “Enzyme degradation CDK2 (% remaining) @ 0.1 μM” value is 10%, the “Enzyme degradation CDK2 (% remaining) @ 1 μM” value was 10% and the “Enzyme degradation CDK2 (% remaining) @ 10 μM” value is 30%. On CDK9, the “Enzyme degradation CDK9 (% remaining) @ 0.1 μM” value is 0%, the “Enzyme degradation CDK9 (% remaining) @ 1 μM” value is recorded as 0% and the “Enzyme degradation CDK9 (% remaining) @ 10 μM” value is recorded as 20%.
For `Cc1cccc(C(=O)N[C@H]2C[C@@H](n3cnc4c(NCc5ccc(N6CCN(CC7CCN(c8ccc9c(c8)C(=O)N([C@H]8CCC(=O)NC8=O)C9=O)CC7)CC6)cc5)ncnc43)C2)n1` [Compound 151, N-((1s,3s)-3-(6-((4-(4-((1-(2-(2,6-dioxopiperidin-3-yl)-1,3-dioxoisoindolin-5-yl)piperidin-4-yl)methyl)piperazin-1-yl)benzyl)amino)-9H-purin-9-yl)cyclobutyl)-6-methylpicolinamide], at CDK2, the “Enzyme degradation CDK2 (% remaining) @ 0.1 μM” value was found to be 30%, the “Enzyme degradation CDK2 (% remaining) @ 1 μM” value is listed as 10% and the “Enzyme degradation CDK2 (% remaining) @ 10 μM” value worked out at 10%. At CDK9, the “Enzyme degradation CDK9 (% remaining) @ 0.1 μM” value is listed as 0/0/0%, the “Enzyme degradation CDK9 (% remaining) @ 1 μM” value is 0/0/0% and the “Enzyme degradation CDK9 (% remaining) @ 10 μM” value was 0/0/0%.
As to `COc1ccc(C(=O)NC[C@H]2CC[C@H](CN3CCN(c4ccc(Nc5ncnc6c5ncn6[C@H]5C[C@@H](NC(=O)Cc6ccccc6)C5)cc4)CC3)CC2)cc1N1CCC(=O)NC1=O` [Compound 198, 3-(2,4-dioxotetrahydropyrimidin-1(2H)-yl)-4-methoxy-N-(((1r,4r)-4-((4-(4-((9-((1s,3s)-3-(2-phenylacetamido)cyclobutyl)-9H-purin-6-yl)amino)phenyl)piperazin-1-yl)methyl)cyclohexyl)methyl)benzamide], on CDK2, the “Enzyme degradation CDK2 (% remaining) @ 0.1 μM” value is on record as 0/0/0%, the “Enzyme degradation CDK2 (% remaining) @ 1 μM” value was 0/0/0% and the “Enzyme degradation CDK2 (% remaining) @ 10 μM” value is 0/0/0%. Besides, at CDK9, the “Enzyme degradation CDK9 (% remaining) @ 0.1 μM” value amounted to 50%, the “Enzyme degradation CDK9 (% remaining) @ 1 μM” value is 30% and the “Enzyme degradation CDK9 (% remaining) @ 10 μM” value is 10%.
With `O=C1CC[C@H](N2C(=O)c3cc(F)c(N4CCC5(CC4)CC(N4CCN(c6ccc(Nc7ncnc8c7ncn8[C@H]7C[C@@H](NC(=O)Cc8ccccc8)C7)cc6)CC4)C5)cc3C2=O)C(=O)N1` [Compound 244, N-((1s,3s)-3-(6-((4-(4-(7-(2-(2,6-dioxopiperidin-3-yl)-6-fluoro-1,3-dioxoisoindolin-5-yl)-7-azaspiro[3.5]nonan-2-yl)piperazin-1-yl)phenyl)amino)-9H-purin-9-yl)cyclobutyl)-2-phenylacetamide], on CDK2, the “Enzyme degradation CDK2 (% remaining) @ 0.1 μM” value is reported as 70%, the “Enzyme degradation CDK2 (% remaining) @ 1 μM” value was 50% and the “Enzyme degradation CDK2 (% remaining) @ 10 μM” value came to 40%. On CDK9, the “Enzyme degradation CDK9 (% remaining) @ 0.1 μM” value came out at 60%, the “Enzyme degradation CDK9 (% remaining) @ 1 μM” value came to 0% and the “Enzyme degradation CDK9 (% remaining) @ 10 μM” value is listed as 0%.
As to `O=C1CC[C@@H](c2cccc(OCC(=O)N3CC(CN4CCC5(CC4)CC(N4CCN(c6ccc(Nc7ncnc8c7ncn8[C@H]7C[C@@H](NC(=O)Cc8ccccc8)C7)cc6)CC4)C5)C3)c2)C(=O)N1` [Compound 276, N-((1s,3s)-3-(6-((4-(4-(7-((1-(2-(3-(2,6-dioxopiperidin-3-yl)phenoxy)acetyl)azetidin-3-yl)methyl)-7-azaspiro[3.5]nonan-2-yl)piperazin-1-yl)phenyl)amino)-9H-purin-9-yl)cyclobutyl)-2-phenylacetamide], at CDK2, the “Enzyme degradation CDK2 (% remaining) @ 0.1 μM” value is given as 30%, the “Enzyme degradation CDK2 (% remaining) @ 1 μM” value was 20% and the “Enzyme degradation CDK2 (% remaining) @ 10 μM” value was found to be 20%. Further, at CDK9, the “Enzyme degradation CDK9 (% remaining) @ 0.1 μM” value stood at 10%, the “Enzyme degradation CDK9 (% remaining) @ 1 μM” value worked out at 0% and the “Enzyme degradation CDK9 (% remaining) @ 10 μM” value amounted to 0%.
In the case of `Cc1cccc(C(=O)N[C@H]2C[C@@H](n3cnc4c(Nc5ccc(N6CCN(C7CC8(CCN(c9ccc%10nnn([C@H]%11CCC(=O)NC%11=O)c(=O)c%10c9)CC8)C7)CC6)cc5)ncnc43)C2)n1` [Compound 386, N-((1s,3s)-3-(6-((4-(4-(7-(3-(2,6-dioxopiperidin-3-yl)-4-oxo-3,4-dihydrobenzo[d][1,2,3]triazin-6-yl)-7-azaspiro[3.5]nonan-2-yl)piperazin-1-yl)phenyl)amino)-9H-purin-9-yl)cyclobutyl)-6-methylpicolinamide], on CDK2, the “Enzyme degradation CDK2 (% remaining) @ 0.1 μM” value is 20%, the “Enzyme degradation CDK2 (% remaining) @ 1 μM” value was determined as 10% and the “Enzyme degradation CDK2 (% remaining) @ 10 μM” value is recorded as 10%. Further, at CDK9, the “Enzyme degradation CDK9 (% remaining) @ 0.1 μM” value was 0/0/0%, the “Enzyme degradation CDK9 (% remaining) @ 1 μM” value was 0/0/0% and the “Enzyme degradation CDK9 (% remaining) @ 10 μM” value was 0/0/0%.
Turning to `Cc1cccc(C(=O)N[C@H]2C[C@@H](n3cnc4c(NC5CCN(CCCN6CCN(C(=O)CNc7cccc8c7C(=O)N([C@H]7CCC(=O)NC7=O)C8=O)CC6)CC5)ncnc43)C2)n1` [Compound 38, N-((1s,3s)-3-(6-((1-(3-(4-((2-(2,6-dioxopiperidin-3-yl)-1,3-dioxoisoindolin-4-yl)glycyl)piperazin-1-yl)propyl)piperidin-4-yl)amino)-9H-purin-9-yl)cyclobutyl)-6-methylpicolinamide], at CDK2, the “Enzyme degradation CDK2 (% remaining) @ 0.1 μM” value turned out to be 40%, the “Enzyme degradation CDK2 (% remaining) @ 1 μM” value came out at 30% and the “Enzyme degradation CDK2 (% remaining) @ 10 μM” value was 20%. On CDK9, the “Enzyme degradation CDK9 (% remaining) @ 0.1 μM” value is recorded as 0/0/0%, the “Enzyme degradation CDK9 (% remaining) @ 1 μM” value was 0/0/0% and the “Enzyme degradation CDK9 (% remaining) @ 10 μM” value is 0/0/0%.
